Results published in patent publication US12459951B2, “Compounds that interact with RAS superfamily proteins for treatment of cancers, inflammatory diseases, rasopathies, and fibrotic disease” (SHY Therapeutics, LLC, priority 2022, dated 2025).

Assays:
Test in all cases: Proliferation Assay (Cell Viability Assay)
Type in all cases: cell-based
[1] = test system: Panc-1 (expressing KRas G12D mutant); settings: Homo sapiens, Panc1, pancreatic
Protocol: (§1) Cell lines: Human tumor-derived cell lines were purchased from American Type Culture Collection. Human tumor-derived pancreatic cancer cell line MiaPaca-2 (expressing KRAS G12C mutant) and Panc-1 (expressing KRas G12D mutant), and Human non-small cell lung cancer (NSCLC) cell line A549 (expressing KRas G12S mutant) were grown in complete DMEM-High Glucose medium. Human colon cancer cell line SW-620 (expressing KRas G12V mutant) was grown in RPMI 1640 medium. All cell lines were supplemented with penicillin (100 U/mL), streptomycin (100 μg/mL), and 10% heat-inactivated FBS at 37° C. in a humidified incubator with 5% CO2.
(§2) Method: Cells were plated at 2000 to 5000 cells/well density in 96-wells plate and cultured overnight. Small molecules to be tested were added to the cells in the final concentration of 10 μM in the presence of 0.3% DMSO and 10% FBS and incubated for 2-4 days at 37° C. in a humidified incubator with 5% CO2. For IC50 value determination, serial dilutions of compounds were added to cells under the same conditions.
(§3) Assay: At the end of the incubation period, cell viability was determined using the CellTiter 96® Aqueous One Solution Cell Proliferation Assay according to manufacturer specifications (Promega, Madison, WI). The percentage of small molecules inhibition of cellular proliferation was calculated from raw data.
(§4) Cell lines: these Human tumor-derived cell lines were purchased from American Type Culture Collection. Human tumor-derived pancreatic cancer cell line MiaPaca-2 (expressing KRAS G12C mutant) and Panc-1 (expressing KRas G12D mutant), and Human non-small cell lung cancer (NSCLC) cell line A549 (expressing KRas G12S mutant), and Human melanoma cell line A375 (wild type Kras) were grown in complete DMEM-High Glucose medium. Human tumor-derived pancreatic cancer cell lines SU86.86 (expressing KRas G12D mutant), BxPC3 (expressing wild type K-Ras), and Human non-small cell lung cancer (NSCLC) cell lines NCI-H441 (expressing KRas G12S mutant), NCI-H1975 (expressing wild type KRas), NCI-H358 (expressing KRas G12C mutant), NCI-H1299 (expressing NRas Q61H mutant), and Human colon cancer cell line SW-620 (expressing KRas G12V mutant), Human triple negative breast cancer cell line HCC-1806 (expressing wild type KRas), and Human tumor-derived multiple myeloma cell line MM.1R (expressing wild type KRAS), were grown in RPMI 1640 medium. Human tumor-derived breast cancer cell line BT-549 (expressing wild type KRAS) was grown in RPMI 1640 medium in the presence of 11.8U insulin. Human tumor-derived pancreatic cancer cell line HPAF-II (expressing KRas G12D mutant), Human triple negative breast cancer cell line BT-20 (expressing wild type KRas), and Human colon cancer cell line LS123 (expressing KRas G12S mutant), were grown in EMEM medium. Human tumor-derived pancreatic cancer cell line CF-PAC1 (expressing KRas G12V mutant) was frown in IMDM medium, and Human colon cancer cell line HT29 (expressing wild type KRas) was grown in McCoy's 5A medium. The colon cancer cell line GP2d (expressing KRas G12D mutant) was purchased from MilliporeSigma and grown in DMEM-High Glucose medium. All cell lines were supplemented with penicillin (100 U/mL), streptomycin (100 μg/mL), and 10% heat-inactivated FBS at 37° C. in a humidified incubator with 5% CO2.
as §2, with “that were” for “to be”, “FBS,” for “FBS”

[2] = test system: A549 (expressing KRas G12S mutant); settings: Homo sapiens, A549, NSCLC
Protocol: as §1, §2, §3, §4
as §2, with “that were” for “to be”, “FBS,” for “FBS”

[3] = test system: SW-620 (expressing KRas G12V mutant); settings: Homo sapiens, SW-620, colon
Protocol: as §1, §2, §3, §4
as §2, with “that were” for “to be”, “FBS,” for “FBS”

Measured: IC50

COc1ccnc(Nc2nc(-c3nccn3C)nn3cc(-c4ccn(C(C)C)n4)c(C)c23)c1 [Compound 58, 6-(1-Isopropyl-1H-pyrazol-3-yl)-N-(4-methoxypyridin-2-yl)-5-methyl-2-(1-methyl-1H-imidazol-2-yl)pyrrolo[2,1-f][1,2,4]triazin-4-amine]
< 150 nM: all assays above
